Values belong to the compound of their own block, whether it stands above or below them.
Tests used:
[1] = molecular target: PDE10A (Homo sapiens, UniProt Q9Y233); assay: PDE10A inhibition, [3H]cAMP hydrolysis scintillation proximity assay; type: biochemical
[2] = tested on: R6/2 mice; conditions: behavioural symptoms such as rotarod performance improved; cited from earlier work

Sequence of PDE10A (Q9Y233 whole entry): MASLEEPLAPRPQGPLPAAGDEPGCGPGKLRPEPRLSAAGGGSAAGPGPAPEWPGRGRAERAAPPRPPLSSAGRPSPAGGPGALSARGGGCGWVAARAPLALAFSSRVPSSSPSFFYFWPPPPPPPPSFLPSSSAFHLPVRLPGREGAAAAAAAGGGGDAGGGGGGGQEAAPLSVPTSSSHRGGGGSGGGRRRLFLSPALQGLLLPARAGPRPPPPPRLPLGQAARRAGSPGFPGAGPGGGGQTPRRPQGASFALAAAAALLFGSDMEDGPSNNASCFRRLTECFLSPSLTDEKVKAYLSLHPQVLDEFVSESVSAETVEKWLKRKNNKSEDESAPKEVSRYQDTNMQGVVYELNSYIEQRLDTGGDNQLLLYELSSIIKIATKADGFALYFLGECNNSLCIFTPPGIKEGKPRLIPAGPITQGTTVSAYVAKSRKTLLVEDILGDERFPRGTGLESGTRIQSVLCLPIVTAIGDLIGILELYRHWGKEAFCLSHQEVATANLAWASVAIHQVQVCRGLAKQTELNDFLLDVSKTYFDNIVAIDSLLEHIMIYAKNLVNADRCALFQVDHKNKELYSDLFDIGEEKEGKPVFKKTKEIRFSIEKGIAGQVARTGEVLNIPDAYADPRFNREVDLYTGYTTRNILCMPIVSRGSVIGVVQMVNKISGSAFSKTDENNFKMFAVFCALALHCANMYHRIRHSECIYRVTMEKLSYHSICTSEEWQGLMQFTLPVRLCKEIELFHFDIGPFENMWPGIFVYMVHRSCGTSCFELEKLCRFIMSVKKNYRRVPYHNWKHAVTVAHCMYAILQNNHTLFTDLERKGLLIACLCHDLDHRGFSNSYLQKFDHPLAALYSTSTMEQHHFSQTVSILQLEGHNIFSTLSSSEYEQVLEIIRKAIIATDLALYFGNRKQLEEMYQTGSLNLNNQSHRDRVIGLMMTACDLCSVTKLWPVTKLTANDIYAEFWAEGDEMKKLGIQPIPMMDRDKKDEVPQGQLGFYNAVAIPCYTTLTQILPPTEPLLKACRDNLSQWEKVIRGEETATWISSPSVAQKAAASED

- fold less potent for PDE10A than 10b ([1]; IC50 versus the corresponding O-atom bridged analogue 10b): 600 fold
SMILES: COc1cc(CSc2ccc(-c3nn(C)cc3-c3ccncc3)cc2)nc2ccccc12 [Compound 10g]

- fold higher PDE10A IC50 value than 11e ([1]; IC50 of 8-methoxy 11f versus 7-methoxy 11e): 2 fold
SMILES: COc1cccc2ccc(COc3ccc(-c4c(-c5ccncc5)cnn4C)cc3)nc12 [Compound 11f]

SMILES: FC(F)(F)Cn1cc(-c2ccncc2)c(-c2ccc(OCc3ccc4ccccc4n3)cc2)n1 [TP-10, 2-[4-[pyridin-4-yl-1-(2,2,2-trifluoroethyl)-1H-pyrazol-3-yl]-phenoxymethyl]-quinoline]
- neuropathology and symptoms in R6/2 mice [2]: ameliorated
